Test results taken from ChEMBL document CHEMBL2040781, “Design, synthesis, and biological evaluation of chromone-based p38 MAP kinase inhibitors” (J Med Chem, 2011).
Active and inactive are the calls of the source. The calls are words filed in the database; no cut-off is given here.

Columns and labels:
[1] = target: Platelet-derived growth factor receptor beta (Homo sapiens) (UniProt P09619); test: Inhibition of human PDGFRbeta assessed as remaining activity at 0.8 uM after 40 mins by scintillation counting
[2] = target: Insulin-like growth factor 1 receptor (Homo sapiens) (UniProt P08069); test: Inhibition of human IGF-1R assessed as remaining activity at 0.8 uM after 40 mins by scintillation counting
[3] = target: Mitogen-activated protein kinase kinase kinase 5 (Homo sapiens) (UniProt Q99683); test: Inhibition of human ASK1 assessed as remaining activity at 0.8 uM after 40 mins by scintillation counting
[4] = target: Ribosomal protein S6 kinase alpha-1 (Homo sapiens) (UniProt Q15418); test: Inhibition of human Rsk1 assessed as remaining activity at 0.8 uM after 40 mins by scintillation counting
[5] = target: Casein kinase I isoform gamma-1 (Homo sapiens) (UniProt Q9HCP0); test: Inhibition of human CK1gamma1 assessed as remaining activity at 0.8 uM after 40 mins by scintillation counting
Casein kinase I isoform gamma-1 (Homo sapiens), sequence (Q9HCP0 whole entry, looked up, canonical isoform): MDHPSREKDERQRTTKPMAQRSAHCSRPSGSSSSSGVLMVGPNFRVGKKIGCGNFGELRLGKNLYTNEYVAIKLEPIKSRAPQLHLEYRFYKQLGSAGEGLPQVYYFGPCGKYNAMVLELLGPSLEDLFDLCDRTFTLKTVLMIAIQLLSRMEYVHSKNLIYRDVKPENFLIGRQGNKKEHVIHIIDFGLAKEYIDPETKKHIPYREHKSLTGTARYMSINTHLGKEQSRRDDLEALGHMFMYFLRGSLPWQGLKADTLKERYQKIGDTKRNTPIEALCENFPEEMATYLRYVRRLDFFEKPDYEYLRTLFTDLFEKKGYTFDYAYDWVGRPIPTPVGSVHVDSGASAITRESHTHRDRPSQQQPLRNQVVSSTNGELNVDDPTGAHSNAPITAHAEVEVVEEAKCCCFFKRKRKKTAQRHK

[6] = target: Eukaryotic elongation factor 2 kinase (Homo sapiens) (UniProt O00418); test: Inhibition of human eEF-2K assessed as remaining activity at 0.8 uM after 40 mins by scintillation counting
[7] = target: Serine/threonine-protein kinase PAK 2 (Homo sapiens) (UniProt Q13177); test: Inhibition of human PAK2 assessed as remaining activity at 0.8 uM after 40 mins by scintillation counting
Serine/threonine-protein kinase PAK 2 (Homo sapiens), sequence (Q13177 whole entry): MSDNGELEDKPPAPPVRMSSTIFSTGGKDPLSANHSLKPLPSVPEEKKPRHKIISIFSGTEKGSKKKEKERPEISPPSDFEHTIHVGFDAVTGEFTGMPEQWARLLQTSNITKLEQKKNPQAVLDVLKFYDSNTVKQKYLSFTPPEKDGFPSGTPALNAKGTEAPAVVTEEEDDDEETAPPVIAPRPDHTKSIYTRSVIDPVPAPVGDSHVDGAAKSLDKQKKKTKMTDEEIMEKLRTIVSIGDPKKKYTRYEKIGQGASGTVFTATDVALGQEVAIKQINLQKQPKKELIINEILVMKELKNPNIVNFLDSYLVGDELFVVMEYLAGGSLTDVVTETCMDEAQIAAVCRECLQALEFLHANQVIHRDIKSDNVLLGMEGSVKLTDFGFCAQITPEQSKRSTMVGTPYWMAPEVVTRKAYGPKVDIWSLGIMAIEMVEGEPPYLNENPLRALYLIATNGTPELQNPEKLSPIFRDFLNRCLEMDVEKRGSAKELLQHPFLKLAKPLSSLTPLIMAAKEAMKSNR

MCF7 [8] = test: Antiproliferative activity against human MCF7 cells at 1 uM after 4 hrs by prestoblue cell viability assay; assay type: functional, cell-based
[9] = target: 5'-AMP-activated protein kinase catalytic subunit alpha-1 (Homo sapiens) (UniProt Q13131); test: Inhibition of human AMPKalpha1 assessed as remaining activity at 0.8 uM after 40 mins by scintillation counting
[10] = target: Inhibitor of nuclear factor kappa-B kinase subunit alpha (Homo sapiens) (UniProt O15111); test: Inhibition of human IKKalpha assessed as remaining activity at 0.8 uM after 40 mins by scintillation counting
Inhibitor of nuclear factor kappa-B kinase subunit alpha (Homo sapiens), sequence (O15111 whole entry): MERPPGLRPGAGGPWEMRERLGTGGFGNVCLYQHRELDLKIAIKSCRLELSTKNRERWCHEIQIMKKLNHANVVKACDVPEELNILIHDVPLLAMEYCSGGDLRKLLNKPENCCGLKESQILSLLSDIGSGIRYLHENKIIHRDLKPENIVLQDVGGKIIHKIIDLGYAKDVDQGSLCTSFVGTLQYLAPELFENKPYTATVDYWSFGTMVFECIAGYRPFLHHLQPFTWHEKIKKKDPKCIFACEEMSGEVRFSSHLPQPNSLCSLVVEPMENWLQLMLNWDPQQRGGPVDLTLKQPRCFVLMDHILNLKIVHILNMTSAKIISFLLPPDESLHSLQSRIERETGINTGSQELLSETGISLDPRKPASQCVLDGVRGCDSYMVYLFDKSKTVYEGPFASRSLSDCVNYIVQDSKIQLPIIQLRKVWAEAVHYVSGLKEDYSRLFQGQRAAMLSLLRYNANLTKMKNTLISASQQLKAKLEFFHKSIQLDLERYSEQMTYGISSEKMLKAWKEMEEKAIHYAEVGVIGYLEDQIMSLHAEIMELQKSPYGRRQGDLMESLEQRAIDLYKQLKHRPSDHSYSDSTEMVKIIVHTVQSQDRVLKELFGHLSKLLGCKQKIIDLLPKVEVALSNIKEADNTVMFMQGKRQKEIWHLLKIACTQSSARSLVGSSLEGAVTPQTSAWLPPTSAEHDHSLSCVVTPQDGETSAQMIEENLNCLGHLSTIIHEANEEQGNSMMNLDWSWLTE

[11] = target: Dual specificity mitogen-activated protein kinase kinase 7 (Homo sapiens) (UniProt O14733); test: Inhibition of human MKK7beta assessed as remaining activity at 0.8 uM after 40 mins by scintillation counting
[12] = target: Mitogen-activated protein kinase 10 (Homo sapiens) (UniProt P53779); test: Inhibition of human JNK3 assessed as remaining activity at 0.8 uM after 40 mins by scintillation counting
[13] = target: Mitogen-activated protein kinase kinase kinase 9 (Homo sapiens) (UniProt P80192); test: Inhibition of human MLK1 assessed as remaining activity at 0.8 uM after 40 mins by scintillation counting
Mitogen-activated protein kinase kinase kinase 9 (Homo sapiens), sequence (P80192 whole entry, looked up): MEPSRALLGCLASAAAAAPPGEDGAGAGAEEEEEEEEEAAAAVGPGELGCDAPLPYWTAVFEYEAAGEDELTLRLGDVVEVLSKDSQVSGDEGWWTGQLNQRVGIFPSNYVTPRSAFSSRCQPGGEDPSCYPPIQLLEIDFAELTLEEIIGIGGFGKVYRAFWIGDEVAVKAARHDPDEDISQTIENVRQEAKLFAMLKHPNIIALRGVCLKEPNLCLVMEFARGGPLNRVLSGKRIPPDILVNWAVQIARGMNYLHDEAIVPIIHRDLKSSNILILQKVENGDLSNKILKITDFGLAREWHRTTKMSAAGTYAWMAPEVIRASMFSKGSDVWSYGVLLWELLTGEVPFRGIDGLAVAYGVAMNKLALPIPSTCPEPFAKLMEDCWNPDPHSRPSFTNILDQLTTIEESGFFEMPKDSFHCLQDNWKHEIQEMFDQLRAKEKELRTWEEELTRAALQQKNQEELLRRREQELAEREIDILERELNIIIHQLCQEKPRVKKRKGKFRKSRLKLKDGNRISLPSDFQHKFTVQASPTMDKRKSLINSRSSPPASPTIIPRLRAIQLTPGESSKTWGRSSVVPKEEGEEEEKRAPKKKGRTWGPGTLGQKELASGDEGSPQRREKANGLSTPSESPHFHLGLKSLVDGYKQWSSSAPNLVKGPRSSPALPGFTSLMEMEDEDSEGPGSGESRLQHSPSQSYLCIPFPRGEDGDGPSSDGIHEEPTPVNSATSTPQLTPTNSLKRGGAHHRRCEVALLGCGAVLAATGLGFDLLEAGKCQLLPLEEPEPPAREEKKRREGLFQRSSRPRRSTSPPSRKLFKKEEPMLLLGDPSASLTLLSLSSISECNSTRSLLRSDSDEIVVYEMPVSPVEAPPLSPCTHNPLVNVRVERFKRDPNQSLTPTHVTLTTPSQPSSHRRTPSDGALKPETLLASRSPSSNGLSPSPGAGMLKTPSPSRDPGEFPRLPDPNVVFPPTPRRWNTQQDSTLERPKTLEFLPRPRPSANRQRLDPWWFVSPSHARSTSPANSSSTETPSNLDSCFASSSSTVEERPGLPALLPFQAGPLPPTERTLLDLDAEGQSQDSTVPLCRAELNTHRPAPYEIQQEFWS

[14] = target: MAP kinase-interacting serine/threonine-protein kinase 2 (Homo sapiens) (UniProt Q9HBH9); test: Inhibition of human Mnk2 assessed as remaining activity at 0.8 uM after 40 mins by scintillation counting
MCF7 [15] = test: Potentiation of doxorubicin-mediated cytotoxicity in human MCF7 cells at 1 uM after 4 hrs by prestoblue cell viability assay; assay type: functional, cell-based
MDA-MB-436 = test: Potentiation of doxorubicin-mediated cytotoxicity in p53-deficient human MDA-MB-436 cells at 1 uM after 4 hrs by prestoblue cell viability assay; assay type: functional, cell-based
MCF7 [16] = test: Potentiation of anisomycin-mediated cytotoxicity in human MCF7 cells at 1 uM after 4 hrs by prestoblue cell viability assay; assay type: functional, cell-based
[17] = target: Cyclin-dependent kinase 2/cyclin A (Homo sapiens) (UniProt P24941+P20248+P78396); test: Inhibition of human CDK2/cyclinA assessed as remaining activity at 0.8 uM after 40 mins by scintillation counting; assay type: protein-complex assay
[18] = target: SRSF protein kinase 1 (Homo sapiens) (UniProt Q96SB4); test: Inhibition of human SRPK1 assessed as remaining activity at 0.8 uM after 40 mins by scintillation counting
SRSF protein kinase 1 (Homo sapiens), sequence (Q96SB4 whole entry): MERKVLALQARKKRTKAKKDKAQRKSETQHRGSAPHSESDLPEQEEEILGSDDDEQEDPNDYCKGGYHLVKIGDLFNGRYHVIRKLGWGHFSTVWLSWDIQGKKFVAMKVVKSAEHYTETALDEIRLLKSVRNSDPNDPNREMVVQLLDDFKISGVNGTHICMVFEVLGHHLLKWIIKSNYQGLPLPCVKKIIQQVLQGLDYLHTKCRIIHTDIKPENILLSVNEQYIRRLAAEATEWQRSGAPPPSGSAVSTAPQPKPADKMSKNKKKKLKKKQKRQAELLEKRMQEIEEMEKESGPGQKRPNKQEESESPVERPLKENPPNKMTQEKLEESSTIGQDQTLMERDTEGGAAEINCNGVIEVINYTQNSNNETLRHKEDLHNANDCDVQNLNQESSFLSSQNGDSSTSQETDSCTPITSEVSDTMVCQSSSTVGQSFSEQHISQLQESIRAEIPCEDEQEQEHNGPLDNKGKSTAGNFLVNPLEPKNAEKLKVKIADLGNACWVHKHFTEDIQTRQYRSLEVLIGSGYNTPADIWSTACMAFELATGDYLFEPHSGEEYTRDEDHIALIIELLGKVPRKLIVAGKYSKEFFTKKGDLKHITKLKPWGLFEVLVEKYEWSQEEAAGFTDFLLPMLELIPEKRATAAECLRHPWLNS

Homo sapiens = species on record: Homo sapiens; test: Inhibition of human PKA assessed as remaining activity at 0.8 uM after 40 mins by scintillation counting
[19] = target: Serine/threonine-protein kinase 4 (Homo sapiens) (UniProt Q13043); test: Inhibition of human MST1 assessed as remaining activity at 0.8 uM after 40 mins by scintillation counting
Serine/threonine-protein kinase 4 (Homo sapiens), sequence (Q13043 whole entry): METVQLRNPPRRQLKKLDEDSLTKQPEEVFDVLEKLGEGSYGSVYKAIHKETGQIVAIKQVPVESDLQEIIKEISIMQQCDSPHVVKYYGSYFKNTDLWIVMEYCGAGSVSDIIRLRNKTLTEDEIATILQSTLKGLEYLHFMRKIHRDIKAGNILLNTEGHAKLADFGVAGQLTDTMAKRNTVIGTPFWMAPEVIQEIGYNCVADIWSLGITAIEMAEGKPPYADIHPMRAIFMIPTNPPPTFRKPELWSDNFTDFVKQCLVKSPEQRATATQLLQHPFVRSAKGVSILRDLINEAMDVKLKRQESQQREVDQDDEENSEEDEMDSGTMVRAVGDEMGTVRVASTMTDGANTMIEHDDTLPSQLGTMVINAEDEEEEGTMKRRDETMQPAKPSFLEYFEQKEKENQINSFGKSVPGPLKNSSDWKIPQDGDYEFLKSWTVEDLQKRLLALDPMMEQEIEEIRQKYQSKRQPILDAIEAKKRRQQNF

[20] = target: Tyrosine-protein kinase Fyn (Homo sapiens) (UniProt P06241); test: Inhibition of human Fyn assessed as remaining activity at 0.8 uM after 40 mins by scintillation counting
[21] = target: Mitogen-activated protein kinase kinase kinase 7 (TAK1) (Homo sapiens) (UniProt O43318); test: Inhibition of human TAK1 assessed as remaining activity at 0.8 uM after 40 mins by scintillation counting
[22] = target: Mitogen-activated protein kinase 14 (Homo sapiens, UniProt Q16539); test: Inhibition of human SAPK2a assessed as remaining activity at 0.8 uM after 40 mins by scintillation counting
[23] = target: Cyclin-dependent kinase 7/ cyclin H (Homo sapiens) (UniProt P51946+P50613); test: Inhibition of human CDK7/cyclinH/MAT1 assessed as remaining activity at 0.8 uM after 40 mins by scintillation counting; assay type: protein-complex assay
[24] = target: Mitogen-activated protein kinase 1 (Homo sapiens) (UniProt P28482); test: Inhibition of human MAPK1 assessed as remaining activity at 0.8 uM after 40 mins by scintillation counting
[25] = target: Casein kinase II subunit alpha' (Homo sapiens) (UniProt P19784); test: Inhibition of human CK2alpha2 assessed as remaining activity at 0.8 uM after 40 mins by scintillation counting
[26] = target: Tyrosine-protein kinase receptor TYRO3 (Homo sapiens) (UniProt Q06418); test: Inhibition of human Rse assessed as remaining activity at 0.8 uM after 40 mins by scintillation counting
Tyrosine-protein kinase receptor TYRO3 (Homo sapiens), sequence (Q06418 whole entry): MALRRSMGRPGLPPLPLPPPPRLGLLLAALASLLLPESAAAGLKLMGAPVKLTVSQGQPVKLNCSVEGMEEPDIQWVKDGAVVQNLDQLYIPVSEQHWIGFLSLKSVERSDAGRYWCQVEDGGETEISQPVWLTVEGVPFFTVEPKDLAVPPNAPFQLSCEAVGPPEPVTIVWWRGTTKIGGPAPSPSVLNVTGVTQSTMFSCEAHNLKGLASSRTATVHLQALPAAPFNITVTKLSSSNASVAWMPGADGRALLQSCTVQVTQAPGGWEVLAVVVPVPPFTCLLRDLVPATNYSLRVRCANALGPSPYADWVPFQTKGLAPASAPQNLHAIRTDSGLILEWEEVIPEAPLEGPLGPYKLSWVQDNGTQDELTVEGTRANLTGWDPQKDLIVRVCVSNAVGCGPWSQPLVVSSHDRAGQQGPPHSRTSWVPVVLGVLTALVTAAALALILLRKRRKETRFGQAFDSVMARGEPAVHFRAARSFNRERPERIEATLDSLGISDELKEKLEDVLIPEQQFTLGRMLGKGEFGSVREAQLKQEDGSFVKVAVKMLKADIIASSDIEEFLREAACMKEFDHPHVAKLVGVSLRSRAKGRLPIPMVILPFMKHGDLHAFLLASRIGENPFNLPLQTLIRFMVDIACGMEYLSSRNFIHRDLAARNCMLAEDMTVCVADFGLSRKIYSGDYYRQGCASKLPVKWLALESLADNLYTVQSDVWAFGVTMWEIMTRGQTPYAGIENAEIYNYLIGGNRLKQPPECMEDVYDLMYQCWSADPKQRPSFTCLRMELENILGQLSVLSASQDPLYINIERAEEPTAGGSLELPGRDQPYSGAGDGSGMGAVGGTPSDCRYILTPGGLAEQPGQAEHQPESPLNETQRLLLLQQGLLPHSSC

[27] = target: Mitogen-activated protein kinase 13 (Homo sapiens) (UniProt O15264); test: Inhibition of human SAPK4 assessed as remaining activity at 0.8 uM after 40 mins by scintillation counting
[28] = target: Mitogen-activated protein kinase 11 (Homo sapiens) (UniProt Q15759); test: Inhibition of human SAPK2b assessed as remaining activity at 0.8 uM after 40 mins by scintillation counting
[29] = target: Serine/threonine-protein kinase Nek2 (Homo sapiens) (UniProt P51955); test: Inhibition of human NEK2 assessed as remaining activity at 0.8 uM after 40 mins by scintillation counting
[30] = target: Mitogen-activated protein kinase 12 (Homo sapiens) (UniProt P53778); test: Inhibition of human SAPK3 assessed as remaining activity at 0.8 uM after 40 mins by scintillation counting
[31] = target: Dual specificity mitogen-activated protein kinase kinase 6 (Homo sapiens) (UniProt P52564); test: Inhibition of anisomycin-induced MKK6 phosphorylation in human MCF7 cells at 1 to 10 uM after 30 mins by SDS PAGE analysis; assay type: cell-based
MCF7 [32] = test: Effect on p38alpha protein level in human MCF7 cells; assay type: functional, cell-based

Activity [1] [%]	Activity [2] [%]	Activity [3] [%]	Activity [4] [%]	Activity [5] [%]	Activity [6] [%]	Activity [7] [%]	Activity [9] [%]	Activity [10] [%]	Activity [11] [%]	Activity [12] [%]	Activity [13] [%]	Activity [14] [%]	Activity [17] [%]	Activity [18] [%]	Activity (Homo sapiens) [%]	Compound	Activity (MCF7 [8])	Activity (MCF7 [15])	Activity (MDA-MB-436)	Activity (MCF7 [16])	also measured
107	94	105	104	94	100	106	97	106	120	21	95	96	95	109	114	CC(C)Nc1cc(-c2oc3ccccc3c(=O)c2-c2ccc(F)cc2)ccn1	inactive	inactive	inactive	inactive	Activity [19]: 99%; Activity [20]: 100%; Activity [21]: 97%; Activity [22]: -3%; Activity [23]: 100%; Activity [24]: 82%; Activity [25]: 105%; Activity [26]: 98%; Activity [27]: 104%; Activity [28]: -3%; Activity [29]: 98%; Activity [30]: 96%
105	100	102	104	97	101	104	102	100	99	24	101	103	101	116	118	O=c1c(-c2ccc(F)cc2)c(-c2ccnc(NC3CCCCC3)c2)oc2ccccc12	inactive	inactive	inactive	inactive	inhibition [31]: inactive; Activity [19]: 93%; Activity [20]: 103%; Activity [21]: 103%; Activity [22]: -1%; Activity [23]: 101%; Activity [24]: 87%; Activity [25]: 104%; Activity [26]: 91%; Activity [27]: 112%; Activity [28]: 9%; Activity [29]: 98%; Activity (MCF7 [32]): inactive; Activity [30]: 97%
